Assay: Elimination half-life
Conditions: human, in vivo

- half-life: ~4 h
SMILES: [2H][C@@](C)(NC(=O)COC(F)F)c1cc(F)cc(Cl)c1COc1cccc2c(-c3ncnn3C)cc(C)nc12 [PHA-022121, (S)-N-(1-deutero-1-(3-chloro-5-fluoro-2-((2-methyl-4-(1-methyl-1H-1,2,4-triazol-5-yl)quinolin-8-yloxy)methyl)phenyl)ethyl)-2-(difluoromethoxy)acetamide]

Source: US20250268887A1, “THERAPEUTIC USES OF BRADYKININ B2-RECEPTOR ANTAGONISTS” (Pharvaris GmbH, priority 2022, published 2025)
